Assay results published in patent US6156744A, “DT-diaphorase directed anti-tumor agents” (Cancer Research Campaign Tech (London), priority 1999, dated 2000).
Read-outs that look alike come from different tables or passages of the source.

Key:
DTD = details: cited from earlier work; for Substrate quality for DTD / pH dependence of metabolism by DTD: literature
DTD-rich cell lines = details: literature; cited from earlier work
DNA [1] = details: literature; cited from earlier work
H596 and H460 cells = assay: MTT continuous challenge cytotoxicity, ratio H596/H460; type: cell-based, human; details: ratio of cytotoxicities, five days, 7200 min
Experimental: (§1) The cell lines used in this work were HT29, H460, H596, BE. These were obtained from the ATCC or from the European Collection for Animal Cell Cultures, ECACC. HT29 is a human colon cancer cell line and H460 is a human large cell lung carcinoma cell line. These two cell lines were used as they express relatively high levels of DTD. […] Continuous challenge cytotoxicity studies were carried out on these cells (600 per well) in 96 well plates using the MTT method. After five days, the absorbances were read on a multiscan plate reader at 540 and 640nm. Plots were then drawn for inhibition of cell growth as a function concentration. Each compound was tested in triplicate at each concentration on at least two occasions.

BE and HT-29 cells = assay: MTT continuous challenge cytotoxicity, ratio BE/HT-29; type: cell-based, human; details: ratio of cytotoxicities, five days, 7200 min
Experimental: as §1

spheroid = details: literature; cited from earlier work
[2] = Bibby et al. 1993; cited from earlier work
[3] = target: human recombinant DT-diaphorase (Homo sapiens, UniProt P15559); assay: NADH removal and quinone removal by recombinant human DT-diaphorase, HPLC; type: biochemical; details: for NADH Removal / Quinone Removal: 0.05 mM quinone, 10-100 ng/ml rhDT-diaphorase, 0.2 mM NADH, 25 mM Tris pH 7.4, n=3
human recombinant DT-diaphorase, sequence (P15559 whole entry): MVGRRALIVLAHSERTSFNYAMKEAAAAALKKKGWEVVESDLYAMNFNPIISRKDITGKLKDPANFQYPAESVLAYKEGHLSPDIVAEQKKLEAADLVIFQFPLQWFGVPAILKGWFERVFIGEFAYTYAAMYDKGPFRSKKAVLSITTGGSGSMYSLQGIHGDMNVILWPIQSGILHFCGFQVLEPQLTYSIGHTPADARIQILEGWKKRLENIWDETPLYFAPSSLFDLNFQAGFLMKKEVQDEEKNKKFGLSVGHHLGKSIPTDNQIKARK
Experimental: The relative abilities of MeDZQ and RH1 to serve as substrates for human recombinant DT-diaphorase were determined. Both quinones (0.05 mM) were incubated with 10-100 ng/ml recombinant human DT-diaphorase and NADH (0.2 mM) in 25 mM Tris buffer, pH 7.4, containing 1 mM DETAPAC. NADH removal was measured by HPLC as described in Beall et al., (1995), supra.

[4] = test system: cells under hypoxic conditions; details: hypoxic vs aerobic; cited from earlier work
[5] = test system: 69 human tumor cell lines; details: p<0.016; cited from earlier work
[6] = Beall et al. 1994, 1995; cited from earlier work
[7] = cited from earlier work
[8] = test system: BE human colon carcinoma cells and H460 human non-small cell lung cancer cells; assay: MTT cytotoxicity, continuous four day exposure, BE versus H460 (FIG. 2); type: cell-based; details: four days, 5760 min
Experimental: (§2) The cell line BE is a human colon carcinoma that is described in Day et al., Carcinogenesis 1 :21-32 (1980).
The cytotoxicity of RH1 and MeDZQ to BE human colon carcinoma cells and H460 human non small cell lung cancer cells was determined. BE cells are DT-diaphorase null due to a mutation in the DT-diaphorase gene, while H460 cells have elevated DT-diaphorase levels (Traver et al., (1997) supra.). Cytotoxicity was determined using the MTT assay and cells were exposed to drug continuously throughout the four day assay.

DNA [9] = details: Lee et al. 1992; cited from earlier work
NSCLC xenografts = details: cited from earlier work
[10] = test system: CHO cell lines stably transfected with human DTD; details: Gustafson et al. 1996; cited from earlier work
H460 and H596 cells = details: Ross et al. 1993; cited from earlier work
[11] = test system: NSCLC and breast cancer cell lines; details: Beall et al. 1995; cited from earlier work
[12] = Solubility in aqueous solution; type: physicochemical; details: phosphate buffered saline; 25° C.
Experimental: (§3) RH1 is easily synthesized with very high purity (>99%). […] The RH1 solutions are very stable with a half life of RH1 in phosphate buffer (0.1 M, pH=7) of more than 2 days at 25° C.

[13] = test system: H460 and H596 human non-small cell lung cancer cells; assay: MTT cytotoxicity, 2 hour exposure, H460 versus H596 cells (FIG. 1); type: cell-based
Experimental: FIG. 1 compares the cytotoxicity of RH1 in human non small cell lung tumor cell lines with elevated DTD activity (H460) and those with no detectable DTD activity (H596). RH1 was 350 fold more toxic to tumor cells with elevated DTD activity than to DTD null cells.
Studies were conducted to determine the cytotoxicity of RH1 against human non small cell lung cancer cell lines. H596 cells are DT-diaphorase null due to a mutation in the DT-diaphorase gene, while H460 cells have elevated DT-diaphorase levels as described in Beall et al., (1995) supra and Traver et al., Br. J. Cancer, 75:69-75 (1997). The cell lines H460 and H596 are available from the American Tissue Type Culture Collection (ATCC), Rockville, Md. Cytotoxicity was determined after a 2 hour drug exposure in serumless medium using the MTT assay as described in detail in Beall et al., (1995), supra.

[14] = Stability of RH1 in phosphate buffer; type: physicochemical
Experimental: as §3

DNA [15] = assay: DNA crosslinking sequence specificity; type: biochemical
[16] = Half-life in pharmacokinetics; details: attributed to free hydroxyl group / water solubility
CHO812 and CHOglyA cells = assay: Cytotoxicity of RH1 to CHOglyA and DTD-transfected CHO812 cells (FIG. 3); type: cell-based, chinese hamster
Experimental: as §2
Further studies were conducted to determine the cytotoxicity of RH1 to CHOglyA and CHO812 cells. CHOglyA cells have non detectable levels of DT-diaphorase, whereas CHO812 cells have elevated levels of DT-diaphorase as reported in Gustafson et al., (1996) supra. The original CHO cell lines were obtained from the American Type Culture Collection, Rockville, Md.

SMILES: CCOC(=O)NC1=C(N2CC2)C(=O)C(NC(=O)OCC)=C(N2CC2)C1=O [AZQ, Diaziquone]
- Substrate quality for DTD (DTD): extremely poor substrate for DTD
- Selectivity for DTD-rich cell lines (DTD-rich cell lines): failed to show any selectivity for DTD-rich cell lines
- DNA damage after reduction (crosslinks, strand breaks) (DNA [1]): does not readily form DNA crosslinks after reduction by DTD

SMILES: CC(=O)OCC1=C(N2CC2)C(=O)C(C)=C(N2CC2)C1=O [Acetyl-, 2-Acetoxymethyl-3,6-diaziridinyl-5-methyl-1,4-benzoquinone]
- H596/H460 (H596 and H460 cells): 4.7
- BE/HT-29 (BE and HT-29 cells): 5.2

SMILES: CC1=C(N2CC2)C(=O)C(COC(=O)c2ccccc2)=C(N2CC2)C1=O [Benzoyl, benzoyl ester of RH1]
- H596/H460 (H596 and H460 cells): 4
- BE/HT-29 (BE and HT-29 cells): 0.1

SMILES: Cn1c(/C=C/CO)c(CO)c2c1C(=O)C=C(N1CC1)C2=O [E09]
- Activity / cytotoxicity in spheroid studies (spheroid): not active
- Substrate quality for DTD (DTD): efficiently reduced by DTD
- Ability to penetrate cells and cross cellular membranes [2]: poor ability
- DNA damage after reduction (crosslinks, strand breaks) (DNA [1]): exclusively form DNA strand breaks

SMILES: CC1=C(N2CC2)C(=O)C(C)=C(N2CC2)C1=O [MeDZQ, 2,5-diaziridinyl-3,6-dimethyl-1,4-benzoquinone]
- Activity / cytotoxicity in spheroid studies (spheroid): increased cytotoxicity
- NADH Removal [3]: 21.6 ± 4.0
- Quinone Removal [3]: 9.7 ± 2.2
- Increase in cytotoxicity under hypoxic relative to aerobic conditions [4]: very modest increase in cytotoxicity
- Effectiveness as a substrate for recombinant human DTD relative to mitomycin C (DTD; Beall et al. 1994, Ross et al. 1994): greater than 150 fold
- Inhibition / inactivation of DTD at higher pHs (DTD): does not inactivate DTD at higher pHs
- pH dependence of metabolism by DTD (DTD): pH-independent
- Correlation (r) between DTD activity and cytotoxicity [5]: 0.3033
- Stability of reactive hydroquinone metabolite [6]: appreciable stability
- solubility [7]: poor solubility
- Ratio of cytotoxicities of IC50, BE (no DTD activity) to H460 (elevated DTD activity) [8]: 33
- DNA crosslinking sequence (DNA [9]): GNC sequences
- Relationship between levels of reducing enzymes and efficacy in NSCLC xenografts (NSCLC xenografts; in vivo): confirmed the relationship between the levels of reducing enzymes and the efficacy
- Cytotoxicity as a result of transfecting DTD into CHO cells [10]: markedly increased
- Cytotoxicity to H596 and H460 cells in comparison to RH1 (H460 and H596 cells): less cytotoxic to both H596 and H460 cells
- Differential toxicity to H460 cells (versus H596) (H460 and H596 cells): 17 fold
- Correlation between DTD levels and cytotoxicity [11]: good correlation
- DNA damage after reduction (crosslinks, strand breaks) (DNA [1]): absolute requirement for reduction of the drug

SMILES: CC1=C(N2CC2)C(=O)C(CO)=C(N2CC2)C1=O [RH1, 2,5-diaziridinyl-3-(hydroxymethyl)-6-methyl-1,4-benzoquinone]
- solubility [12]: > 500 µg/mL
- NADH Removal [3]: 45.2 ± 6.3
- Quinone Removal [3]: 28.2 ± 4.2
- Effectiveness as a substrate for DT-diaphorase, compared with MeDZQ ([3]; Example 2): more effective as a substrate for DT-diaphorase than MeDZQ
- H596/H460 (H596 and H460 cells): 41
- Cytotoxicity to tumor cell lines with elevated DTD activity, compared with MeDZQ [13]: more cytotoxic to tumor cell lines with elevated DTD activity
- Selective killing of DTD-rich cells [13]: selectively kills cells rich in DTD
- Fold toxicity to tumor cells with elevated DTD activity (H460) relative to DTD null cells (H596) ([13]; 2 hour exposure, MTT, FIG. 1): 350 fold
- BE/HT-29 (BE and HT-29 cells): 17.5
- Stability of solutions [14]: very stable
- half-life ([14]; 0.1 m phosphate buffer, 0.1 M, pH=7, 25° C.): > 48 h
- DNA crosslinking sequence (DNA [15]): GCC sequences
- Ratio of cytotoxicities of IC50, BE (no DTD activity) to H460 (elevated DTD activity) [8]: 51
- Half-life in pharmacokinetics [16]: shorter half-life in pharmacokinetics
- Susceptibility of CHO-812 (DTD overexpressing) to cell killing relative to parent CHO-glyA (CHO812 and CHOglyA cells): more susceptible

SMILES: CO[C@@]12[C@H](COC(N)=O)C3=C(C(=O)C(C)=C(N)C3=O)N1C[C@@H]1N[C@@H]12 [mitomycin C]
- Inhibition / inactivation of DTD at higher pHs (DTD): pH-dependent inhibition of DTD at higher pHs
- Substrate quality for DTD (DTD): very poor substrate for DTD
- pH dependence of metabolism by DTD (DTD): pH-dependent
- Susceptibility of NSCLC xenografts with high DTD activity versus SCLC xenografts with low DTD activity (NSCLC xenografts; literature): more susceptible
